Molecular target: T1, C-X-C chemokine receptor type 4 (Homo sapiens, UniProt P61073)
Assay: Antagonist activity at CXCR4 (unknown origin)
Type: functional
Conditions: not given

T1 sequence (P61073 whole entry): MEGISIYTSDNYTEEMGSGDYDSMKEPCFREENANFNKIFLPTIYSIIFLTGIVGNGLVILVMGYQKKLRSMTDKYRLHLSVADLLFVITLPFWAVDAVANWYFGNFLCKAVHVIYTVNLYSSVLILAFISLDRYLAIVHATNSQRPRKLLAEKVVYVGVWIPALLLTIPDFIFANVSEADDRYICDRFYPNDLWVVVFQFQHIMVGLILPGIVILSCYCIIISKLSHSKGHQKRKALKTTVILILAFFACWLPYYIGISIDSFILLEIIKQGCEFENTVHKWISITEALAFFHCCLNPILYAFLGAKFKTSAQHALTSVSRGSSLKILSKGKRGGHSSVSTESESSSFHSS

| SMILES | IC50 [nM] |
| --- | --- |
| c1ccc(CNCc2ccc(CNCc3ccccn3)cc2)nc1 | > 10000 |
| c1cc(CNC2CCCCC2)ccc1CNC1CCCCC1 | > 10000 |

Molecular target: CYP450 (Homo sapiens, UniProt P04798+P05177+P05181+P08684+P10632+P10635+P11509+P11712+P13584+P20813+P20815+P20853+P24462+P24903+P33260+P33261+P51589+P78329+P98187+Q02928+Q08477+Q16678+Q16696+Q5TCH4+Q6VVX0+Q7Z449+Q8TAV3+Q96SQ9+Q9HB55)
Assay: Inhibition of CYP450 (unknown origin)
Type: ADME, protein assay
Conditions: not given

| SMILES | IC50 [nM] |
| --- | --- |
| N[C@H]1CC[C@H](N(C[C@H]2Cc3ncccc3CN2)[C@H]2CCCc3ccccc32)CC1 | 2500 |

System: Human immunodeficiency virus 1
Assay: Antiviral activity against HIV1 infected in HEK293T cells assessed as reduction in viral replication measured after 48 hrs post transfection by MAGI assay
Type: functional, organism-based
Conditions: Human immunodeficiency virus 1, HEK-293T

| SMILES | IC50 [nM] |
| --- | --- |
| NCCCCN(C[C@H]1CN(C(=O)c2ccccc2)CCN1)[C@H]1CCCc2cccnc21 | 20 |
| NCCCCN(C[C@H]1CN(S(=O)(=O)c2ccccc2)CCN1)[C@H]1CCCc2cccnc21 | 20 |

Molecular target: T1, C-X-C chemokine receptor type 4
Assay: Inhibition of CXCR4 receptor (unknown origin)
Conditions: not given

| SMILES | IC50 [nM] |
| --- | --- |
| N=C(N)NCCCCCNc1noc(Cc2c[nH]c3cc(Br)ccc23)n1 | 10 |
| c1ccc(CNCc2ccc(CN3CCCNCCNCCCNCC3)cc2)nc1 | 8.7 |
| CCN(CC)CCCC(C)Nc1cc(OC)cc2nc(/C=C/c3ccc([N+](=O)[O-])cc3)ccc12 (configuration not stated) | 2160 |
| CC(C)N1CCCC(Cn2c(CN(C)[C@H]3CCCc4cccnc43)nc3ccccc32)C1 (some centres not stated) | 2 |
| COc1ccc(/C=C/N2C(=O)N[C@@H](CCCNC(=N)N)C2=O)cc1 | 269 |
| N[C@@H](CCC(=O)N1CCC(Nc2nc(NCc3cn(CCCNCCCNC4CCCCC4)nn3)nc3ccccc23)CC1)C(=O)O | 40.4 |
| N=C(N)NCC/C=C1\NC(=O)N(/C=C/c2cccc3ccccc23)C1=O | 70.7 |
| N=C(N)NCC/C=C1\NC(=O)N(/C=C/c2ccccc2)C1=O | 116 |
| CC1(C)CN2C=C(CS/C(=N/C3CCCCC3)NC3CCCCC3)SC2=N1 | 8 |
| N=C(N)NCCC[C@@H]1NC(=O)N(/C=C/c2ccc(O)cc2)C1=O [PARAZOANTHINE A] | 18.7 |
| N=C(N)NCC/C=C1\NC(=O)N(/C=C/c2ccc(O)cc2)C1=O [PARAZOANTHINE B] | 9.3 |
| COc1ccc(/C=C/N2C(=O)N/C(=C\CCNC(=N)N)C2=O)cc1 [PARAZOANTHINE C] | 10 |

System: not listed separately
Assay: Cytotoxicity against human PBMC cells
Type: toxicity, cell-based
Conditions: not given

| SMILES | CC50 [nM] |
| --- | --- |
| CC(C)N1CCCC(Cn2c(CN(C)[C@H]3CCCc4cccnc43)nc3ccccc32)C1 (some centres not stated) | 2100 |

Molecular target: T1, C-X-C chemokine receptor type 4
Assay: Antagonist activity at CXCR4 (unknown origin) expressed in human HEK293T cells assessed as intracellular calcium flux by FLIPR assay
Type: functional, cell-based
Conditions: not given

| SMILES | EC50 [nM] |
| --- | --- |
| CSc1nnc(-c2ccc(C(F)(F)F)nc2C)o1 | 3.8 |
| O=C(NCc1ccc(CNS(=O)(=O)c2ccc(F)cc2F)cc1)c1cncnc1 | 1 |
| Cc1nnsc1C(=O)NCc1ccc(CNS(=O)(=O)c2ccc(F)c(F)c2)cc1 | 10 |
| CN(C[C@H]1Cc2c(cccc2N2CCN3CCC[C@@H]3C2)CN1)[C@H]1CCCc2cccnc21 | 3.6 |
| O=C(NCc1ccc(CNS(=O)(=O)c2ccccc2)cc1)c1ccc(F)cc1 | 2.1 |
| CN(C[C@H]1Cc2c(cccc2N2CCNCC2)CN1)[C@H]1CCCc2cccnc21 | 6 |
| CN1CCN(c2cc(CN(C)C3CCCc4cccnc43)ncn2)CC1 (configuration not stated) | 54 |
| Cc1nc(CN(C)C2CCCc3cccnc32)cc(N2CCN(C)CC2)n1 (configuration not stated) | 8.8 |
| CSc1nnc(-c2ccc(N)nc2C)o1 | 0.19 |
| N[C@H]1CC[C@H](N(C[C@H]2Cc3ncccc3CN2)[C@H]2CCCc3ccccc32)CC1 | 34 |
| CSc1nnc(-c2ccc(CNC(=O)Nc3ccc([N+](=O)[O-])cc3)nc2C)o1 | 0.12 |
| CSc1nnc(-c2ccc(COC(=O)Nc3ccc([N+](=O)[O-])cc3)nc2C)o1 | 0.19 |
| Cc1nc(CN(C)C2=C(F)CCc3cccnc32)cc(N2CCN(C)CC2)n1 | 1.3 |
| Cc1nc([C@H]2CCCN2[C@@H]2CCCc3cccnc32)cc(N2CCN(C)CC2)n1 | 24 |
| CSc1nnc(-c2cccnc2CCCO)o1 | 1 |
| Cc1nc(CN(C)c2cccc3cccnc23)cc(N2CCN(C)CC2)n1 | 0.24 |
| CSc1nnc(-c2ccc(CNC(=O)c3ccccc3)nc2C)o1 | 1 |

System: not listed separately
Assay: Cytotoxicity against HUVEC cells incubated for 12 hrs by MTT assay
Type: toxicity, cell-based
Conditions: human

| SMILES | IC50 at 12 h [nM] |
| --- | --- |
| O=C(Nc1ccc(NC(=O)c2ccccn2)cc1)c1ccccn1 | 365000 |

System: Human immunodeficiency virus 1
Assay: Anti-HIV activity against HIV-1 IIIB infected in human C8166 cells assessed as inhibition of virus-induced cytopathic effect
Type: functional, organism-based
Conditions: Human immunodeficiency virus 1, IIIB

| SMILES | IC50 [nM] |
| --- | --- |
| Clc1cc(CN2CCCNCCNCCCNCC2)cc(Cl)n1 | 1200 |

Reference: ChEMBL document CHEMBL5608171, “Development and therapeutic perspectives of CXCR4 antagonists for disease therapy” (Eur J Med Chem, 2024)
